Reference: patent publication US11078202B2, “β-lactamase inhibitor and use thereof” (priority 2018, dated 2021)
Where a name gives a salt, the structure may show the parent alone.

Tests used:
Type in all cases: cell-based
[1] = tested on: Klebsiella pneumoniae XNWB 0004; assay: MIC assay of test compounds combined with imipenem (4 μg/mL); settings: imipenem 4 μg/mL fixed
Method in brief: (§1)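 Inoculum: TSA-grown colonies (35±2 °C, 20-24 h, subcultured once), NaCl 0.9% suspension at OD600 0.1-0.15, then 300× dilution into 1.1×CAMHB. Serial compound dilutions with the partner antibiotic at a fixed level; ambient-air incubation 16-20 h, 35±2 °C; CLSI-based MIC readout.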

[2] = tested on: Klebsiella pneumoniae XNWB 0006; assay: as above; settings: imipenem 4 μg/mL fixed
Method in brief: as §1

[3] = tested on: Klebsiella pneumoniae XNWB 0003; assay: as above; settings: imipenem 4 μg/mL fixed
Method in brief: as §1

[4] = tested on: Klebsiella pneumoniae XNWB 0005; assay: as above; settings: imipenem 4 μg/mL fixed
Method in brief: as §1

[5] = tested on: Klebsiella pneumoniae XNWB 0002; assay: as above; settings: imipenem 4 μg/mL fixed
Method in brief: as §1

[6] = tested on: Acinetobacter baumannii XNWB 0007; assay: as above; settings: imipenem 4 μg/mL fixed
Method in brief: as §1

[7] = tested on: Klebsiella pneumoniae XNWB 0001; assay: as above; settings: imipenem 4 μg/mL fixed
Method in brief: as §1

[8] = tested on: Pseudomonas aeruginosa XNWB 0008; assay: as above; settings: imipenem 4 μg/mL fixed
Method in brief: as §1

[9] = tested on: Klebsiella pneumoniae XNWB 0004; assay: MIC assay of test compounds combined with ceftazidime (8 μg/mL); settings: ceftazidime 8 μg/mL fixed
Method in brief: as §1

[10] = tested on: Klebsiella pneumoniae XNWB 0006; assay: as above; settings: ceftazidime 8 μg/mL fixed
Method in brief: as §1

[11] = tested on: Klebsiella pneumoniae XNWB 0003; assay: as above; settings: ceftazidime 8 μg/mL fixed
Method in brief: as §1

[12] = tested on: Klebsiella pneumoniae XNWB 0005; assay: as above; settings: ceftazidime 8 μg/mL fixed
Method in brief: as §1

[13] = tested on: Klebsiella pneumoniae XNWB 0002; assay: as above; settings: ceftazidime 8 μg/mL fixed
Method in brief: as §1

[14] = tested on: Acinetobacter baumannii XNWB 0007; assay: as above; settings: ceftazidime 8 μg/mL fixed
Method in brief: as §1

[15] = tested on: Klebsiella pneumoniae XNWB 0001; assay: as above; settings: ceftazidime 8 μg/mL fixed
Method in brief: as §1

[16] = tested on: Pseudomonas aeruginosa XNWB 0008; assay: as above; settings: ceftazidime 8 μg/mL fixed
Method in brief: as §1

## N=C1NC[C@H](c2nnc([C@@H]3CC4(CC4)[C@@H]4CN3C(=O)N4OS(=O)(=O)O)o2)N1 [Example 56, (1R,4S)-4-(5-((R)-2-iminoimidazolidin-4-yl)-1,3,4-oxadiazol-2-yl)-6-oxo-5,7-diazaspiro[bicyclo[3.2.1]octane-2,1′-cyclopropan]-7-yl sulfate]
[1]
  The minimum concentration of test compounds combined with imipenem (4 μg/mL) for bacteriostasis: A (A: <8 μg/mL)
[2]
  The minimum concentration of test compounds combined with imipenem (4 μg/mL) for bacteriostasis: A (A: <8 μg/mL)
[3]
  The minimum concentration of test compounds combined with imipenem (4 μg/mL) for bacteriostasis: A (A: <8 μg/mL)
[4]
  The minimum concentration of test compounds combined with imipenem (4 μg/mL) for bacteriostasis: A (A: <8 μg/mL)
[5]
  The minimum concentration of test compounds combined with imipenem (4 μg/mL) for bacteriostasis: A (A: <8 μg/mL)
[6]
  The minimum concentration of test compounds combined with imipenem (4 μg/mL) for bacteriostasis: B (B: 8-16 μg/mL)
[7]
  The minimum concentration of test compounds combined with imipenem (4 μg/mL) for bacteriostasis: A (A: <8 μg/mL)
[8]
  The minimum concentration of test compounds combined with imipenem (4 μg/mL) for bacteriostasis: B (B: 8-16 μg/mL)
[9]
  The minimum concentration of test compounds combined with ceftazidime (8 μg/mL) for bacteriostasis: A (A: <8 μg/mL)
[10]
  The minimum concentration of test compounds combined with ceftazidime (8 μg/mL) for bacteriostasis: A (A: <8 μg/mL)
[11]
  The minimum concentration of test compounds combined with ceftazidime (8 μg/mL) for bacteriostasis: A (A: <8 μg/mL)
[12]
  The minimum concentration of test compounds combined with ceftazidime (8 μg/mL) for bacteriostasis: A (A: <8 μg/mL)
[13]
  The minimum concentration of test compounds combined with ceftazidime (8 μg/mL) for bacteriostasis: A (A: <8 μg/mL)
[14]
  The minimum concentration of test compounds combined with ceftazidime (8 μg/mL) for bacteriostasis: C (C: 16-128 μg/mL)
[15]
  The minimum concentration of test compounds combined with ceftazidime (8 μg/mL) for bacteriostasis: A (A: <8 μg/mL)
[16]
  The minimum concentration of test compounds combined with ceftazidime (8 μg/mL) for bacteriostasis: B (B: 8-16 μg/mL)

## NC1CC(c2cc([C@@H]3CC4(CC4)[C@@H]4CN3C(=O)N4OS(=O)(=O)O)no2)C1 (single isomer, unassigned) [Example 52]
[1]
  The minimum concentration of test compounds combined with imipenem (4 μg/mL) for bacteriostasis: A (A: <8 μg/mL)
[2]
  The minimum concentration of test compounds combined with imipenem (4 μg/mL) for bacteriostasis: A (A: <8 μg/mL)
[3]
  The minimum concentration of test compounds combined with imipenem (4 μg/mL) for bacteriostasis: A (A: <8 μg/mL)
[4]
  The minimum concentration of test compounds combined with imipenem (4 μg/mL) for bacteriostasis: A (A: <8 μg/mL)
[5]
  The minimum concentration of test compounds combined with imipenem (4 μg/mL) for bacteriostasis: A (A: <8 μg/mL)
[6]
  The minimum concentration of test compounds combined with imipenem (4 μg/mL) for bacteriostasis: C (C: 16-128 μg/mL)
[7]
  The minimum concentration of test compounds combined with imipenem (4 μg/mL) for bacteriostasis: A (A: <8 μg/mL)
[8]
  The minimum concentration of test compounds combined with imipenem (4 μg/mL) for bacteriostasis: A (A: <8 μg/mL)
[9]
  The minimum concentration of test compounds combined with ceftazidime (8 μg/mL) for bacteriostasis: B (B: 8-16 μg/mL)
[10]
  The minimum concentration of test compounds combined with ceftazidime (8 μg/mL) for bacteriostasis: A (A: <8 μg/mL)
[11]
  The minimum concentration of test compounds combined with ceftazidime (8 μg/mL) for bacteriostasis: B (B: 8-16 μg/mL)
[12]
  The minimum concentration of test compounds combined with ceftazidime (8 μg/mL) for bacteriostasis: B (B: 8-16 μg/mL)
[13]
  The minimum concentration of test compounds combined with ceftazidime (8 μg/mL) for bacteriostasis: A (A: <8 μg/mL)
[14]
  The minimum concentration of test compounds combined with ceftazidime (8 μg/mL) for bacteriostasis: C (C: 16-128 μg/mL)
[15]
  The minimum concentration of test compounds combined with ceftazidime (8 μg/mL) for bacteriostasis: A (A: <8 μg/mL)
[16]
  The minimum concentration of test compounds combined with ceftazidime (8 μg/mL) for bacteriostasis: C (C: 16-128 μg/mL)
